From patent US12054510B2, “2′ and/or 5′ amino-acid ester phosphoramidate 3′-deoxy adenosine derivatives as anti-cancer compounds” (Nucana plc, priority 2014, dated 2024)
pIC50: −log10 of the molar value.

What was measured:
KG-1 [1] = test: CellTiterGlo cell viability assay, initial screening; assay type: cell-based; settings: KG-1; 72 hr; Table II
Description: (§1) In vitro viability assays were performed to assess the effects of compounds on cell viability in 7 selected cell lines over 72 hr using the CellTiterGlo (CTG, Promega-G7573) assay. The tests were performed in duplicates with treatment of compounds at 9 points, 3.16 folds titration in 96 well plates over ˜72 hr. The compound starting concentrations were […]. Cell viability assay using CellTiterGlo in 96-well plate were performed. The compound treatment was 72 hrs, under standard growth conditions, and in duplicate. Compounds were dissolved to 40 mM with thawed […]. Compounds were serially diluted at 3.16 fold in thawed DMSO, and warmed to 37° C. before being dissolved in media (2 μl+200 μl). After compounds were dissolved in media (media was also warmed to 37° C.). Media containing compounds were warmed to 37° C. in incubator and then compounds in media were added to cell plates (50 μl+50 μl), in duplicates. The compounds final concentrations were from […] to 19.9 nM. All compound solubilities were checked and recorded again, then the plates were transferred to CO2 tissue culture incubator immediately and incubated for 3 days. DMSO final concentration is 0.5%.

MOLT-4 = test: as above; assay type: cell-based; settings: for M.I. %: maximum percentage inhibition of cell viability: MOLT-4, 72 hr, Table II
Description: as §1

HepG2 [2] = test: as above; assay type: cell-based; settings: for M.I. %: maximum percentage inhibition of cell viability: HepG2, 72 hr, Table II; for pIC50: Homo sapiens, HepG2, 72 h, read-out: IC50 (relative IC50)
Description: as §1

CCRF-CEM = test: as above; assay type: cell-based; settings: CCRF-CEM; 72 hr; Table II
Description: as §1

HL-60 [3] = test: as above; assay type: cell-based; settings: for M.I. %: maximum percentage inhibition of cell viability: HL-60, 72 hr, Table II; for pIC50: Homo sapiens, HL-60, 72 h, read-out: IC50 (relative IC50)
Description: as §1

MCF-7 = test: as above; assay type: cell-based; settings: MCF-7; 72 hr; Table II
Description: as §1

K562 = test: as above; assay type: cell-based; settings: 72 hr, Table II
Description: as §1

MiaPaCa-2 = test: Solid tumour and haematological malignancy assay (CellTiterGlo); assay type: cell-based; settings: Homo sapiens, MIA PaCa-2, 72 h, read-out: MI %
Description: (§2) In vitro viability assay were performed to assess the effects of compounds on cell viability in selected cell lines over 72 hr using the CellTiterGlo (CTG, Promega-G7573) assay. […] Cell viability assay using CellTiterGlo in 96-well plate were performed. Compound treatment 72 hrs, standard growth conditions, duplicates. Compounds were dissolved to 40 mM with thawed 100%. […] After compounds were dissolved in media, media containing compounds were warmed to 37° C. in incubator and then compounds in media were added to cell plates (50 μl+50 μl) in duplicates. […] All compound solubilities were checked and recorded again, then the plates were transferred to CO2 tissue culture incubator immediately and incubated for 3 days. DMSO final concentration is 0.5%.

KG-1 [4] = test: as above; assay type: cell-based; settings: Homo sapiens, KG-1, 72 h; for pIC50: read-out: IC50 (absolute IC50); for Emax: read-out: MI %
Description: as §2

MCF7 = test: as above; assay type: cell-based; settings: Homo sapiens, MCF7, 72 h; for pIC50: read-out: IC50 (absolute IC50); for Emax: read-out: MI %
Description: as §2

HepG2 [5] = test: as above; assay type: cell-based; settings: Homo sapiens, HepG2, 72 h; for Emax: read-out: MI %
Description: as §2

HL-60 [6] = test: as above; assay type: cell-based; settings: Homo sapiens, HL-60, 72 h, read-out: MI %
Description: as §2

CEM (TdT+ve) = test: ATP ViaLight plus cell viability assay; assay type: cell-based, Human; settings: for (FD) fold difference compared to control: CEM
Description: Certain compounds of the invention were subjected to further studies to test the cytotoxic activity of certain compounds of the invention and also to measure their activity against 4 haematological cancer cell lines • TdT positive CEM (Human ALL) • TdT negative K562 (Human CML) • TdT negative H1-60 (Human ANLL) • RL (CRL-2261) non-HD lymphoma • The concentrations of the active metabolite dATP (Cordycepin triphosphate) in these cell lines was also measured. • The cytotoxic activity and the intracellular 3′-dATP concentrations were also studied in the presence of hENT1, Adenosine Kinase (AK) and Adenosine Deaminase pharmacological inhibitors in CEM and RL cancer cell lines. Said inhibitors that mimic known cancer resistance mechanisms. Methods Cell Culture
HL-60, K562, CCRF-CEM and RL cell lines were cultured in RPMI-1640 medium (Sigma Aldrich, UK), which were supplemented with 10% Fetal Bovine Serum (FBS) (PAA Laboratories), 1% amphotericin B (5.5 ml) and 1% penicillin/streptomycin (5.5 ml) (PAA Laboratories) and grown in flasks at 37° C. incubator with 5% CO2.
The amount of ATP was used as a measurement of cell number and cell viability. ATP ViaLight™ plus assay kit (Lonza, USA: Product No. LT07-121) to detect ATP in cells treated in luminescence compatible 96 well plates (initial concentration of cells was 1×10^4 cells/well) with cordycepin and ProTides at concentrations of: 0, 0.1, 0.5, 1, 5 and 10 μM, followed by incubation for 72 hours at 37° C. incubator with 5% CO2. For inhibitor studies, 10 μM of NBTI or 1 μM EHNA or A-134974 was added and left for 5 minutes before adding the drugs (see section 5 for inhibitor details).
After incubation, 50 μl of cell lysis reagent was added to the 96 well plates to release the intracellular ATP, followed by 100 μl of ATP monitoring reagent (AMR). The luminescent values of each well were determined using FLUOstar OPTIMA microplate reader (BMG Labtech) which convert ATP into light by using luciferase enzyme. Therefore, the amount of luminescence produced was directly proportional to the amount of ATP.
Cell lines were treated in the same way as described above but before treatment with drugs, a number of inhibitors were added: • 1) Nitrobenzylthioinosine (NBTI) (Sigma-Aldrich, St. Louis, MO, product # N2255) blocks nucleoside transporters • 2) EHNA hydrochloride (Sigma-Aldrich, St. Louis, MO, product # E114) blocks adenosine deaminase • 3) Adenosine kinase inhibitor A-134974 dihydrochloride hydrate (Sigma-Aldrich, St. Louis, MO, product # A2846): blocks adenosine kinase
The dose-response curves of cytotoxicity of the drugs was determined using non-linear regression analysis of percentage cell viability versus concentration and EC50 values were obtained. The intracellular assay was conducted in five replicates for each condition. Intracellular assay was determined using paired t test (two-tailed) analysis of 3′ ATP/ATP concentration and p-values were obtained. For all the analysis, Prism Software program (GraphPad Software) was used and Microsoft Powerpoint® 2013 was used to plot the results.

For `CCOC(=O)CCc1ccccc1OP(=O)(N[C@@H](C)C(=O)OCc1ccccc1)OC[C@@H]1C[C@@H](O)[C@H](n2cnc3c(N)ncnc32)O1` (stereo partly drawn) [F, (2S)-benzyl 2-(((((2S,4R,5R)-5-(6-amino-9H-purin-9-yl)-4-hydroxytetrahydrofuran-2-yl)methoxy)(2-(3-ethoxy-3-oxopropyl)phenoxy)phosphoryl)amino)propanoate], the “M.I. %: maximum percentage inhibition of cell viability” value (“M.I. %: maximum percentage inhibition” below) (KG-1 [1]) was 98%, the “M.I. %: maximum percentage inhibition” value (MOLT-4) was 100% and the “M.I. %: maximum percentage inhibition” value (HepG2 [2]) was 84%. The pIC50 (HepG2 [2]) was 4.00 to 4.82, the “M.I. %: maximum percentage inhibition” value (CCRF-CEM) was 99% and the “M.I. %: maximum percentage inhibition” value (HL-60 [3]) was 100%. The pIC50 (HL-60 [3]) was 4.00 to 4.82, the “M.I. %: maximum percentage inhibition” value (MCF-7) was 99% and the “M.I. %: maximum percentage inhibition” value (K562) was 91%. It also gave an Emax (MiaPaCa-2) of 101%, a pIC50 (KG-1 [4]) of 4.00 to 4.82 and an Emax (KG-1 [4]) of 95%. For the same compound, the pIC50 (MCF7) was 4.82 to 5.30, the Emax (MCF7) was 103% and the Emax (HepG2 [5]) was 79%. The Emax (HL-60 [6]) was 96%, the “(FD) fold difference compared to Cordycepin = Cordycepin IC50/ProTide IC50” value (CEM (TdT+ve); CEM (TdT+ve)) was 5 and the pIC50 (CEM (TdT+ve); Homo sapiens, 72 h, CEM (TdT+ve), 72 hours) was 5.37.

For `COC(=O)C(C)(C)NP(=O)(OC[C@@H]1C[C@@H](O)[C@H](n2cnc3c(N)ncnc32)O1)Oc1cccc2ccccc12` (stereo partly drawn) [E, Methyl 2-(((((2S,4R,5R)-5-(6-amino-9H-purin-9-yl)-4-hydroxytetrahydrofuran-2-yl)-methoxy)(naphthalen-1-yloxy)phosphoryl)amino)-2-methylpropanoate], the “M.I. %: maximum percentage inhibition” value (KG-1 [1]) was 69%, the “M.I. %: maximum percentage inhibition” value (MOLT-4) was 97% and the “M.I. %: maximum percentage inhibition” value (HepG2 [2]) was 59%. The pIC50 (HepG2 [2]) was 4.00 to 4.82, the “M.I. %: maximum percentage inhibition” value (CCRF-CEM) was 90% and the “M.I. %: maximum percentage inhibition” value (HL-60 [3]) was 74%. For the same compound, the pIC50 (HL-60 [3]) was 4.00 to 4.82, the “M.I. %: maximum percentage inhibition” value (MCF-7) was 78% and the “M.I. %: maximum percentage inhibition” value (K562) was 81%. It also gave an Emax (MiaPaCa-2) of 91%, a pIC50 (KG-1 [4]) of 4.00 to 4.82 and a pIC50 (MCF7) of 4.82 to 5.30. For the same compound, the Emax (MCF7) was 89%, the pIC50 (HepG2 [5]; read-out: IC50 (absolute IC50)) was 4.00 to 4.82 and the Emax (HepG2 [5]) was 67%. The Emax (HL-60 [6]) was 95%, the “(FD) fold difference compared to Cordycepin = Cordycepin IC50/ProTide IC50” value (CEM (TdT+ve); CEM (TdT+ve)) was 2 and the “(FD) fold difference compared to control” value (CEM (TdT+ve); AK) was 1. The “(FD) fold difference compared to control” value (CEM (TdT+ve); EHNA) was 1 and the “(FD) fold difference compared to control” value (CEM (TdT+ve); NBTI) was 2.

`C[C@H](NP(=O)(OC[C@@H]1C[C@@H](O)[C@H](n2cnc3c(N)ncnc32)O1)Oc1cccc2ccccc12)C(=O)OCc1ccccc1` (stereo partly drawn) [B, (2S)-benzyl 2-(((((2S,4R,5R)-5-(6-amino-9H-purin-9-yl)-4-hydroxytetrahydrofuran-2-yl)methoxy)(naphthalen-1-yloxy)phosphoryl)amino)propanoate] was tested, and the “M.I. %: maximum percentage inhibition” value (KG-1 [1]) was 100%, the pIC50 (MOLT-4; Homo sapiens, MOLT-4, 72 h, read-out: IC50 (relative IC50)) was 5.30 to 7.00 and the “M.I. %: maximum percentage inhibition” value (MOLT-4) was 100%. The “M.I. %: maximum percentage inhibition” value (HepG2 [2]) was 95%, the “M.I. %: maximum percentage inhibition” value (CCRF-CEM) was 100% and the “M.I. %: maximum percentage inhibition” value (HL-60 [3]) was 100%. The pIC50 (HL-60 [3]) was 4.82 to 5.30, the “M.I. %: maximum percentage inhibition” value (MCF-7) was 99% and the “M.I. %: maximum percentage inhibition” value (K562) was 97%. For the same compound, the Emax (MiaPaCa-2) was 98%, the pIC50 (KG-1 [4]) was 4.82 to 5.30 and the Emax (KG-1 [4]) was 97%. The pIC50 (MCF7) was 5.30 to 7.00, the Emax (MCF7) was 96% and the Emax (HepG2 [5]) was 98%. For the same compound, the Emax (HL-60 [6]) was 99%, the “(FD) fold difference compared to Cordycepin = Cordycepin IC50/ProTide IC50” value (CEM (TdT+ve); CEM (TdT+ve)) was 150 and the “(FD) fold difference compared to control” value (CEM (TdT+ve); AK) was 1. For the same compound, the “(FD) fold difference compared to control” value (CEM (TdT+ve); EHNA) was 1 and the “(FD) fold difference compared to control” value (CEM (TdT+ve); NBTI) was 1.
